What was measured:
[1] = target: T1, CDK9/CycT1 (Homo sapiens, UniProt P50750); assay: CDK9/CycT1 high ATP kinase assay (TR-FRET, 2 mM ATP); format: biochemical; conditions: 2 mM ATP (high ATP); median; read-out: CDK9/CyclinT1, 2 mM ATP (high ATP), IC50 (median)
T1 construct: Recombinant full-length His-tagged human CDK9 and CycT1; purchased Life Technologies PV4131; host or cells: insect cells
Method in brief: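 Full-length His-tagged human CDK9/CycT1 (insect cell, ~0.5 μg/mL) preincubated 15 min at 22 °C with compound in Tris pH 8.0, MgCl2, DTT buffer before reaction with biotinylated peptide substrate at high ATP (2 mM).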

[2] = target: CDK12/CycK (Homo sapiens, UniProt Q9NYV4); assay: CDK12/CycK high ATP kinase assay (TR-FRET, 2 mM ATP); format: biochemical; conditions: 2 mM ATP (high ATP); median; read-out: CDK12/CyclinK, 2 mM ATP (high ATP), IC50-[mol/l] (median)
Method in brief: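 His-tagged human CDK12/CycK (~0.75 nM) pre-incubated 15 min with compound, then 60 min at 22 °C with 2 mM ATP and 1 µM biotinylated peptide (HEPES pH 7.5, 20 mM MgCl2). EDTA stop; phospho-Ser62 antibody/Eu anti-rabbit and streptavidin-XL665 TR-FRET, 665/620 nm ratio normalised to give IC50.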

CDK12/CycK, sequence (Q9NYV4 with tags, fused parts or gaps): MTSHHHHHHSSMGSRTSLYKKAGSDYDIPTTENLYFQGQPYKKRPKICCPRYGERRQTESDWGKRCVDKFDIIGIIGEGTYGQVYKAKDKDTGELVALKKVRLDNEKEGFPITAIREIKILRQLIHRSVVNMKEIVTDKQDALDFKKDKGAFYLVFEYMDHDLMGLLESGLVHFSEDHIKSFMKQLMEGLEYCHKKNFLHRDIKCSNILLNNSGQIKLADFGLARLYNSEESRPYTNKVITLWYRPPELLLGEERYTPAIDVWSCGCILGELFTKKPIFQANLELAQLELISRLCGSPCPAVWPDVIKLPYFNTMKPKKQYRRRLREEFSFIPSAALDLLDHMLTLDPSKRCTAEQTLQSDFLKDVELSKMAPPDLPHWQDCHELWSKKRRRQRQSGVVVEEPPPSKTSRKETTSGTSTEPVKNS
CDK12/CycK, sequence (O75909 1-300 partner limits assumed): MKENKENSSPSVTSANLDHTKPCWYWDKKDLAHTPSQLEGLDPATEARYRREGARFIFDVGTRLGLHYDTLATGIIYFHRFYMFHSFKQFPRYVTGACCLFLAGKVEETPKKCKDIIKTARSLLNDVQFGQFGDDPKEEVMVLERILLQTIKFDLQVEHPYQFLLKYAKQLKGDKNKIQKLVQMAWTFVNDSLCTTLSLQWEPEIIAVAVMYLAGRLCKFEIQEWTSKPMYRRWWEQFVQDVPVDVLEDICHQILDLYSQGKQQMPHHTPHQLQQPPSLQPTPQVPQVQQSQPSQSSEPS
T1 sequence (P50750 whole entry): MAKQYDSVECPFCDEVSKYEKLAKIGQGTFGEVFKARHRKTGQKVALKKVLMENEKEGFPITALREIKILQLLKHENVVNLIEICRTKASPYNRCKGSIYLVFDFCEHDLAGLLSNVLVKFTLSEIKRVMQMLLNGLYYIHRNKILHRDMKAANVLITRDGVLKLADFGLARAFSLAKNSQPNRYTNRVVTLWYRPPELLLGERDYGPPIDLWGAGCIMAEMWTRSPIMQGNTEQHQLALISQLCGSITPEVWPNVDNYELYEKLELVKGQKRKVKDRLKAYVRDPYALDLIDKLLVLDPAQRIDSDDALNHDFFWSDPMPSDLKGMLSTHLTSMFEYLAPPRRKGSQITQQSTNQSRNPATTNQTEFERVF
T1 sequence (O60563 whole entry partner): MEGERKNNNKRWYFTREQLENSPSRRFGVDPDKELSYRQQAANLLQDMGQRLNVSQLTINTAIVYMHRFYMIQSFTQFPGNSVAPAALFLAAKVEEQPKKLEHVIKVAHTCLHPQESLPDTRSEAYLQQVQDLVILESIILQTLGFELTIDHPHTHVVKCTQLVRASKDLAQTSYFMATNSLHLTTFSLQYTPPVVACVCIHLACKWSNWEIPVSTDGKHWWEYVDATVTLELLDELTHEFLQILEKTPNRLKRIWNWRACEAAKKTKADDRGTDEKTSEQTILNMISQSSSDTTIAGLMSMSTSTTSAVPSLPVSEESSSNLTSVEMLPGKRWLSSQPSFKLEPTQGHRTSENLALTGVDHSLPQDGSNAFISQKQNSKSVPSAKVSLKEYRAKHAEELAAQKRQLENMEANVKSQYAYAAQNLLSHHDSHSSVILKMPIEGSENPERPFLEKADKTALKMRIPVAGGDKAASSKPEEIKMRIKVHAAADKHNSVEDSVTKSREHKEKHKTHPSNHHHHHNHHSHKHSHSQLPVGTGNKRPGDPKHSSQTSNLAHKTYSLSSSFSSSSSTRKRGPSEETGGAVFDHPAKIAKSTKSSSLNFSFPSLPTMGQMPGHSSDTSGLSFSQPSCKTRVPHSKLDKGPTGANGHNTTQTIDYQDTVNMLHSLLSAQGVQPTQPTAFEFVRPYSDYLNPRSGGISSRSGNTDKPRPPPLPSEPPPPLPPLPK

IC50 [1] [µM] | IC50 [2] [µM] | Compound
> 20 | 1.75 | Cc1ccc2[nH]c(CNc3nc(N4CCOCC4)nc4c(C5CC5)cnn34)nc2c1 [Example 193, 8-cyclopropyl-N-[(5-methyl-1H-benzimidazol-2-yl)methyl]-2-(morpholin-4-yl)pyrazolo[1,5-a][1,3,5]triazin-4-amine]
> 20 | > 16.4 | CC(C)c1cnn2c(NCc3nc4ccccc4[nH]3)nc(Nc3ccncc3)nc12 [Example 14, N^4-[(1H-benzimidazol-2-yl)methyl]-8-(propan-2-yl)-N^2-(pyridin-4-yl)pyrazolo[1,5-a][1,3,5]triazine-2,4-diamine]
> 20 | > 20 | CN1CC[C@@H]2CN(c3nc(NCc4nc5ccccc5[nH]4)n4ncc(Br)c4n3)C[C@@H]21 [Example 217, N-[(1H-benzimidazol-2-yl)methyl]-8-bromo-2-[(3aR,6aR)-1-methylhexahydropyrrolo[3,4-b]pyrrol-5 (1H)-yl]pyrazolo[1,5-a][1,3,5]triazin-4-amine]
> 20 | 0.641 | Fc1ccc2[nH]c(CNc3nc(N4CCOCC4)nc4c(C5CC5)cnn34)nc2c1F [Example 172, 8-cyclopropyl-N-[(4,5-difluoro-1H-benzimidazol-2-yl)methyl]-2-(morpholin-4-yl)pyrazolo[1,5-a][1,3,5]triazin-4-amine]
> 20 | 6.56 | Fc1ccc2[nH]c(CNc3nc(N4C[C@@H]5CCCN[C@@H]5C4)nc4c(C5CC5)cnn34)nc2c1F [Example 171, 8-cyclopropyl-N-[(4,5-difluoro-1H-benzimidazol-2-yl)methyl]-2-[(4aS,7aS)-octahydro-6H-pyrrolo[3,4-b]pyridin-6-yl]pyrazolo[1,5-a][1,3,5]triazin-4-amine]
> 20 | 14.8 | Brc1cnn2c(NCc3nc4ccccc4[nH]3)nc(N3C[C@H]4CCCN[C@H]4C3)nc12 [Example 199, N-[(1H-benzimidazol-2-yl)methyl]-8-bromo-2-[(4aR, 7aR)-octahydro-6H-pyrrolo[3,4-b]pyridin-6-yl]pyrazolo[1,5-a][1,3,5]triazin-4-amine]
> 20 | 17.3 | Fc1ccc2[nH]c(CNc3nc(N4C[C@@H]5CCCN[C@@H]5C4)nc4c(C5CC5)cnn34)nc2c1 [Example 180, 8-cyclopropyl-N-[(5-fluoro-1H-benzimidazol-2-yl)methyl]-2-[(4aS, 7aS)-octahydro-6H-pyrrolo[3,4-b]pyridin-6-yl]pyrazolo[1,5-a][1,3,5]triazin-4-amine]
> 20 | 8.09 | COc1cccc2[nH]c(CNc3nc(N4C[C@@H]5CCCN[C@@H]5C4)nc4c(C5CC5)cnn34)nc12 [Example 214, 8-cyclopropyl-N-[(4-methoxy-1H-benzimidazol-2-yl)methyl]-2-[(4aS,7aS)-octahydro-6H-pyrrolo[3,4-b]pyridin-6-yl]pyrazolo[1,5-a][1,3,5]triazin-4-amine]
> 20 | 6.17 | Fc1ccc2[nH]c(CNc3nc(N4CCNCC4)nc4c(C5CC5)cnn34)nc2c1 [Example 190, 8-cyclopropyl-N-[(5-fluoro-1H-benzimidazol-2-yl)methyl]-2-(piperazin-1-yl)pyrazolo[1,5-a][1,3,5]triazin-4-amine]
> 20 | 11 | C[C@@H]1CN(c2nc(NCc3nc4cc(F)ccc4[nH]3)n3ncc(C4CC4)c3n2)C[C@H](C)N1 [Example 175, 8-cyclopropyl-2-[(3R,5S)-3,5-dimethylpiperazin-1-yl]-N-[(5-fluoro-1H-benzimidazol-2-yl)methyl]pyrazolo[1,5-a][1,3,5]triazin-4-amine]
> 20 | > 20 | COCCNc1nc(NCc2nc3ccccc3[nH]2)n2ncc(Br)c2n1 [Example 230, N4-(1H-benzimidazol-2-ylmethyl)-8-bromo-N2-(2-methoxyethyl)pyrazolo[1,5-a][1,3,5]triazine-2,4-diamine]
> 20 | > 20 | CN1CC2CN(c3nc(NCc4nc5ccccc5[nH]4)n4ncc(Br)c4n3)CC2C1 (stereo not drawn) [Example 240, N-(1H-benzimidazol-2-ylmethyl)-8-bromo-2-(2-methyl-1,3,3a,4,6,6a-hexahydropyrrolo[3,4-c]pyrrol-5-yl)pyrazolo[1,5-a][1,3,5]triazin-4-amine]
> 20 | 4.34 | Cc1ccc2[nH]c(CNc3nc(N4CCNCC4)nc4c(Br)cnn34)nc2c1 [Example 204, 8-bromo-N-[(5-methyl-1H-benzimidazol-2-yl)methyl]-2-(piperazin-1-yl)pyrazolo[1,5-a][1,3,5]triazin-4-amine]
> 20 | 13.7 | C[C@H]1CN(c2nc(NCc3nc4ccccc4[nH]3)n3ncc(Br)c3n2)CCN1 [Example 169, N-[(1H-benzimidazol-2-yl)methyl]-8-bromo-2-[(3S)-3-methylpiperazin-1-yl]pyrazolo[1,5-a][1,3,5]triazin-4-amine]
> 20 | 10.2 | Fc1cccc2[nH]c(CNc3nc(N4C[C@@H]5C[C@H]4CO5)nc4c(C5CC5)cnn34)nc12 [Example 183, 8-cyclopropyl-N-[(4-fluoro-1H-benzimidazol-2-yl)methyl]-2-[(1S,4S)-2-oxa-5-azabicyclo[2.2.1]heptan-5-yl]pyrazolo[1,5-a][1,3,5]triazin-4-amine]
> 20 | 5.72 | OC1CCN(c2nc(NCc3nc4ccccc4[nH]3)n3ncc(Br)c3n2)CC1 [Example 17, 1-(4-{[(1H-benzimidazol-2-yl)methyl]amino}-8-bromopyrazolo[1,5-a][1,3,5]triazin-2-yl)piperidin-4-ol]
> 20 | 15.6 | O[C@H]1CCN(c2nc(NCc3nc4ccccc4[nH]3)n3ncc(Br)c3n2)C1 [Example 224, (3S)-1-(4-{[(1H-benzimidazol-2-yl)methyl]amino}-8-bromopyrazolo[1,5-a][1,3,5]triazin-2-yl)pyrrolidin-3-ol]
> 20 | 4.86 | O[C@H]1C[C@@H](Nc2nc(NCc3nc4ccccc4[nH]3)n3ncc(Br)c3n2)C1 [Example 234, cis-3-[(4-{[(1H-benzimidazol-2-yl)methyl]amino}-8-bromopyrazolo[1,5-a][1,3,5]triazin-2-yl)amino]cyclobutan-1-ol]
> 20 | > 4.59 | CC1(C)CN(c2nc(NCc3nc4ccccc4[nH]3)n3ncc(Br)c3n2)CCN1 [Example 216, N-[(1H-benzimidazol-2-yl)methyl]-8-bromo-2-(3,3-dimethylpiperazin-1-yl)pyrazolo[1,5-a][1,3,5]triazin-4-amine]
> 20 | > 20 | Brc1cnn2c(NCc3nc4ccccc4[nH]3)nc(NCCN3CCCC3)nc12 [Example 235, N4-(1H-benzimidazol-2-ylmethyl)-8-bromo-N2-(2-pyrrolidin-1-ylethyl)pyrazolo[1,5-a][1,3,5]triazine-2,4-diamine]
> 20 | > 16.5 | CO[C@@H]1CCN(c2nc(NCc3nc4ccccc4[nH]3)n3ncc(Br)c3n2)C1 [Example 223, N-[(1H-benzimidazol-2-yl)methyl]-8-bromo-2-[(3R)-3-methoxypyrrolidin-1-yl]pyrazolo[1,5-a][1,3,5]triazin-4-amine]

— patent US20230117034A1, “PYRAZOLOTRIAZINES” (Bayer Aktiengesellschaft, priority 2019, published 2023)
